In US8304412B2, “Cyclically substituted 3,5-dicyano-2-thiopyridines and use thereof” (Bayer Intellectual Property GmbH, priority 2006, dated 2012):

Assays:
Type in all cases: cell-based
[1] = target: T1, adenosine A1 receptor (Homo sapiens, UniProt P30542); assay: Indirect determination of adenosine agonism by gene expression (luciferase), A1 cells; details: 1 μM forskolin; stably transfected CHO cells; 50% inhibition of luciferase answer
T1 construct: expressed in transfected cells; host or cells: CHO (Chinese Hamster Ovary)
T1 sequence (P30542 1-326): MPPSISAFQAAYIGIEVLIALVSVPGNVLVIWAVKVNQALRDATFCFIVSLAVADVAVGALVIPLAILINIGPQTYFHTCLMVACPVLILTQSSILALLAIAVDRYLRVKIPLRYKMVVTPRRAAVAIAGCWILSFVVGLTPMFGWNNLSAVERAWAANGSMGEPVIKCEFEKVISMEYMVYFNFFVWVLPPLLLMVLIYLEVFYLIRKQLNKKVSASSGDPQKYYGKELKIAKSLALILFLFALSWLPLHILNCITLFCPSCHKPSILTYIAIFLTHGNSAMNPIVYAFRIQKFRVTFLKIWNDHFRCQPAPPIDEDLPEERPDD
Source text: (§1) B-1. Indirect Determination of the Adenosine Agonism by Way of Gene Expression
(§2) Cells of the CHO (Chinese Hamster Ovary) permanent cell line are transfected stably with the cDNA for the adenosine receptor subtypes A1, A2a and A2b. The adenosine A1 receptors are coupled to the adenylate cyclase by way of Gi proteins, while the adenosine A2a and A2b receptors are coupled by way of Gs proteins. In correspondence with this, the formation of cAMP in the cell is inhibited or stimulated, respectively. After that, expression of the luciferase is modulated by way of a cAMP-dependent promoter. The luciferase test is optimized, with the aim of high sensitivity and reproducibility, low variance and good suitability for implementation on a robot system, by varying several test parameters, such as cell density, duration of the growth phase and the test incubation, forskolin concentration and medium composition. The following test protocol is used for pharmacologically characterizing cells and for the robot-assisted substance screening:
(§3) The stock cultures are grown, at 37° C. and under 5% CO2, in DMEM/F12 medium containing 10% FCS (fetal calf serum) and in each case split 1:10 after 2-3 days. The test cultures are seeded in 384-well plates with 2000 cells per well and grown at 37° C. for approx. 48 hours. The medium is then replaced with a physiological sodium chloride solution (130 mM sodium chloride, 5 mM potassium chloride, 2 mM calcium chloride, 20 mM HEPES, 1 mM magnesium chloride hexahydrate, 5 mM sodium bicarbonate, pH 7.4). The substances to be tested, which are dissolved in DMSO, are pipetted into the test cultures (maximum final concentration of DMSO in the test mixture: 0.5%) in a dilution series of from 5×10^−11M to 3×10^−6M (final concentration). 10 minutes later, forskolin is added to the A1 cells and all the cultures are subsequently incubated at 37° C. for four hours. After that, 35 μl of a solution which is composed of 50% lysis reagent (30 mM disodium hydrogenphosphate, 10% glycerol, 3% TritonX100, 25 mM TrisHCl, 2 mM dithiotreitol (DTT), pH 7.8) and 50% luciferase substrate solution (2.5 mM ATP, 0.5 mM luciferin, 0.1 mM coenzyme A, 10 mM tricine, 1.35 mM magnesium sulfate, 15 mM DTT, pH 7.8) are added to the test cultures, which are shaken for approx. 1 minute and the luciferase activity is measured using a camera system. The EC50 values are determined, i.e., the concentrations at which 50% of the luciferase answer is inhibited in the case of the A1 cell, and, respectively, 50% of the maximum stimulation with the corresponding substance is achieved in the case of the A2b and A2a cells. […] Pharmacol., 357 (1998), 1-9).
(§4) Table 1 below lists the EC50 values of representative working examples for the receptor stimulation on adenosine A1, A2a and A2b receptor subtypes: […]

[2] = target: T2, adenosine A2b receptor (Homo sapiens, UniProt P29275); assay: Indirect determination of adenosine agonism by gene expression (luciferase), A2b cells; details: stably transfected CHO cells; 50% of maximum luciferase stimulation
T2 construct: expressed in transfected cells; host or cells: CHO (Chinese Hamster Ovary)
T2 sequence (P29275 1-332): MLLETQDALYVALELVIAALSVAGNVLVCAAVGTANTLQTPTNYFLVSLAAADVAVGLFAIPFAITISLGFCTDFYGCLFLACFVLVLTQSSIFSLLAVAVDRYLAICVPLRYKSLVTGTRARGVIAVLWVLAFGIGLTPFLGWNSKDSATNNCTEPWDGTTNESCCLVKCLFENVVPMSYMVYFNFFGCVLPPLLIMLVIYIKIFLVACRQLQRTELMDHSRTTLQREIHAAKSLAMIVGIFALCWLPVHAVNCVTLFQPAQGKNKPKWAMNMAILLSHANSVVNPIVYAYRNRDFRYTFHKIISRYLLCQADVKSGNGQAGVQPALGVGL
Source text: as §1, §2, §3, §4

[3] = target: T3, adenosine A2a receptor (Homo sapiens, UniProt P29274); assay: Indirect determination of adenosine agonism by gene expression (luciferase), A2a cells; details: stably transfected CHO cells; 50% of maximum luciferase stimulation
T3 construct: expressed in transfected cells; host or cells: CHO (Chinese Hamster Ovary)
T3 sequence (P29274 whole entry): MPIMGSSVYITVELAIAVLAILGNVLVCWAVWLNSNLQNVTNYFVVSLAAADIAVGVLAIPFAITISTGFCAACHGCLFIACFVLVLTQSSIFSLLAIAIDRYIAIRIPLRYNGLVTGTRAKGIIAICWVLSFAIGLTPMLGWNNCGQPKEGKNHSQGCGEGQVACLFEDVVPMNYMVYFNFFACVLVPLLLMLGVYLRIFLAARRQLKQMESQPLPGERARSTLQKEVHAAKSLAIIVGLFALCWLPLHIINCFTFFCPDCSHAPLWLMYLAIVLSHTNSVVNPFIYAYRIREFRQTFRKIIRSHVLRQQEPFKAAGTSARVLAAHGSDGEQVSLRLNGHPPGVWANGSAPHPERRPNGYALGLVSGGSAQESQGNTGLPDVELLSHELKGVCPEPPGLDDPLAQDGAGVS
Source text: as §1, §2, §3, §4

| EC50 [1] | EC50 [2] | EC50 [3] | SMILES |
| --- | --- | --- | --- |
| 11 nM | 950 nM | > 3000 nM | N#Cc1c(N)nc(SCc2coc(-c3ccc(Cl)cc3)n2)c(C#N)c1C1CCCOC1 (stereo not drawn) [Example 58, 2-Amino-6-({[2-(4-chlorophenyl)-1,3-oxazol-4-yl]methyl}sulfanyl)-4-(tetrahydro-2H-pyran-3-yl)-pyridine-3,5-dicarbonitrile] |
| 106 nM | > 3000 nM | > 3000 nM | Cc1sc(-c2ccc(Cl)cc2)nc1CSc1nc(N)c(C#N)c(C2CCCCC2)c1C#N [Example 76] |
| 17 nM | > 3000 nM | > 3000 nM | N#Cc1c(N)nc(SCc2coc(-c3ccc(F)c(Cl)c3)n2)c(C#N)c1[C@H]1CC[C@@H](O)CC1 [Example 78] |
| 0.08 nM | 22 nM | 224 nM | N#Cc1c(N)nc(SCc2cccc(C(N)=O)c2)c(C#N)c1C1CCCCC1 [Example 70] |
| 0.4 nM | 75 nM | 620 nM | N#Cc1c(N)nc(SCc2csc(-c3ccc(C(=O)O)cc3)n2)c(C#N)c1C1CCCCO1 (single isomer, unassigned) [Example 23] |
| 10 nM | 670 nM | 380 nM | N#Cc1c(N)nc(SCc2csc(-c3ccc(Cl)cc3)n2)c(C#N)c1C1CCCCO1 (single isomer, unassigned; ent-2) [Example 15, ent-2-Amino-6-({[2-(4-chlorophenyl)-1,3-thiazol-4-yl]methyl}thio)-4-(tetrahydro-2H-pyran-2-yl)-pyridine-3,5-dicarbonitrile] |
| 6.8 nM | > 3000 nM | > 3000 nM | N#Cc1c(N)nc(SCc2cccc(C(=O)O)c2)c(C#N)c1C1CCCCO1 (stereo not drawn) [Example 51] |
| 8.9 nM | 791 nM | > 3000 nM | N#Cc1c(N)nc(SCc2csc(-c3ccc(Cl)cc3)n2)c(C#N)c1C1CCN(C(=O)CO)CC1 [Example 9, 2-Amino-6-({[2-(4-chlorophenyl)-1,3-thiazol-4-yl]methyl}thio)-4-(1-glycoloylpiperidin-4-yl)-pyridine-3,5-dicarbonitrile] |
| 3.8 nM | 345 nM | > 3000 nM | N#Cc1c(N)nc(SCc2csc(-c3ccc(Cl)cc3)n2)c(C#N)c1C1CCCCC1 [Example 29, 2-Amino-6-({[2-(4-chlorophenyl)-1,3-thiazol-4-yl]methyl}thio)-4-cyclohexylpyridine-3,5-dicarbonitrile] |
| 0.8 nM | 51 nM | > 3000 nM | Cc1nc(SCc2csc(-c3ccc(C(=O)O)cc3)n2)c(C#N)c(C2CCCCO2)c1C#N (single isomer, unassigned; (+)) [Example 56, (+)-4-[4-({[3,5-Dicyano-6-methyl-4-(tetrahydro-2H-pyran-2-yl)pyridin-2-yl]sulfanyl}methyl)-1,3-thiazol-2-yl]benzoic acid] |
| 9.5 nM | 860 nM | > 3000 nM | N#Cc1cnc(SCc2csc(-c3ccc(C(=O)O)cc3)n2)c(C#N)c1C1CCCOC1 (racemic) [Example 65, rac-4-[4-({[3,5-Dicyano-4-(tetrahydro-2H-pyran-3-yl)pyridin-2-yl]sulfanyl}methyl)-1,3-thiazol-2-yl]benzoic acid] |
| 0.06 nM | > 3000 nM | > 3000 nM | N#Cc1c(N)nc(SCc2csc(-c3ccc(C(=O)O)cc3)n2)c(C#N)c1C1CCCOC1 (single isomer, unassigned; (+)) [Example 62, (+)-4-[4-({[6-Amino-3,5-dicyano-4-(tetrahydro-2H-pyran-3-yl)pyridin-2-yl]sulfanyl}methyl)-1,3-thiazol-2-yl]benzoic acid] |
| 68 nM | > 3000 nM | 1470 nM | CN1CCN(CCCNc2nc(SCc3csc(-c4ccc(Cl)cc4)n3)c(C#N)c(C3CCCCC3)c2C#N)CC1 [Example 35] |
| 2.9 nM | 320 nM | 1100 nM | N#Cc1c(N)nc(SCc2csc(-c3ccc(Cl)cc3)n2)c(C#N)c1[C@H]1CC[C@@H](O)CC1 [Example 4] |
| 0.8 nM | 558 nM | 1260 nM | N#Cc1c(N)nc(SCc2csc(-c3ccc(Cl)cc3)n2)c(C#N)c1[C@H]1CC[C@H](O)CC1 [Example 3, 2-Amino-6-({[2-(4-chlorophenyl)-1,3-thiazol-4-yl]methyl}thio)-4-(trans-4-hydroxycyclohexyl)-pyridine-3,5-dicarbonitrile] |
